Reference: paper PMC11546786, “Designing Analogs of SAAP-148 with Enhanced Antimicrobial and Anti-LPS Activities” (International Journal of Molecular Sciences, 2024)

Assays:
[1] = CD spectra, secondary structure by BeStSel; format: physicochemical; settings: 30 μM SDS as printed, 100 μM peptide, 25 °C
Experimental: CD spectra (Figure S1) were acquired using a JASCO J-1500 spectropolarimeter (JASCO Inc., Easton, MD, USA) in 0.1 cm pathlength cells under nitrogen at 25 °C. The spectra were recorded in the range of 190 to 250 nm at a peptide concentration of 100 μM in SDS. Secondary structure was determined using the BeStSel server. Hydropathicity, mean relative hydrophobic moment, and charge of peptides were predicted using the HeliQuest (https://heliquest.ipmc.cnrs.fr/ (accessed on 12 March 2024)). The 3D structure of SAAP-148 and its analogues (Figure S2) was predicted using PEP-FOLD4 servers (https://bioserv.rpbs.univ-paris-diderot.fr/services/PEP-FOLD4/ (accessed on 19 June 2024)).

[2] = tested on: Gram-positive bacteria (S. aureus, S. epidermidis); experiment: Geometric mean of MICs against Gram-positive bacteria; format: cell-based; design: unit not given here
Experimental: (§1) The antibacterial activities of the peptides against […] were evaluated using a modified version of the Clinical Laboratory and Standards Institute (CLSI) broth microdilution method, as previously described. Briefly, the bacteria were cultured in liquid LB medium (comprising 10 g/L tryptone, 5 g/L yeast extract, and 10 g/L NaCl) at 37 °C until reaching mid-log phase. Subsequently, the bacterial concentration was adjusted to 1 × 10^6 colony-forming units (CFU)/mL. The peptides were then diluted serially with phosphate-buffered saline (PBS), followed by the addition of 50 μL of the diluted peptides to 50 μL of the bacterial suspension in a 96-well plate (Corning Inc., Lowell, MA, USA). After incubating at 37 °C for 18 to 20 h, the absorbance of each well was measured using a multi-well microplate reader (SpectraMax M5; Molecular Devices, Sunnyvale, CA, USA) at 600 nm.

[3] = tested on: Gram-negative bacteria (E. coli, P. aeruginosa, K. pneumoniae); experiment: Geometric mean of MICs against Gram-negative bacteria; format: cell-based; design: unit not given here
Experimental: as §1

[4] = Reversed-phase HPLC retention time as measure of peptide hydrophobicity; format: physicochemical; settings: retention time by reverse-phase HPLC, reflects hydrophobicity difference between analogues
From the text: The physicochemical parameters crucial for the antimicrobial activity of AMPs have been identified, encompassing net charge, helicity, hydrophobicity, and amphipathicity. The hydropathicity, mean relative hydrophobic moment, and charge of peptides were predicted using the HeliQuest (https://heliquest.ipmc.cnrs.fr/ (accessed on 12 March 2024)). Lysine is a hydrophilic amino acid, and its substitution leads to a decrease in the hydrophobicity of the SAAP-148 analogue. The anticipated results are consistent, with the degree of reduction in […] varying depending on the position at which lysine is substituted (Table 2). The amphipathicity of the peptides, as denoted by the μH (mean relative hydrophobic moment), is elaborated on in Table 2. The hydrophobic moment of SAAP-148 analogues was decreased except for SAAP-10, which is on account of the substitution occurring on the18th residue. (Figure 1) The 18th residue of SAAP-148 is glutamine, a polar amino acid residue, located at the junction of the hydrophobic and hydrophilic surfaces of the SAAP-148 α-helix. […] The retention time data determined by reversed-phase high-performance liquid chromatography (RP-HPLC) reflects the hydrophobicity difference between peptide analogues. It is well documented that the formation of a hydrophobic-binding domain due to peptide secondary structure can affect peptide interactions with reversed-phase matrices. This effect was observed particularly for amphipathic α-helical peptides. Given this preferred binding domain, amphipathic α-helical peptides are considerably more retentive than non-amphipathic peptides with the same amino acid composition.
This phenomenon was particularly evident in the case of amphipathic α-helical peptides. […] This discrepancy may be attributed to the lack of a well-defined α-helical structure in SAAP-148 and its analogues (Figure S1).

S. aureus = experiment: Membrane damage, PI staining and flow cytometry; format: cell-based, Staphylococcus aureus; settings: 6.25 μM peptide, OD600 0.5 in PBS, 37 °C, 30 min, flow cytometry
Experimental: (§2) Propidium iodide (PI) was utilized as a marker for assessing the structural integrity of cell membranes and the occurrence of cell death. The impact of peptides on BEAS-2B cells, E. coli, and S. aureus was investigated by treating the cells with peptides followed by PI staining and flow cytometry (FACS) analysis to evaluate peptide-induced membrane damage. Table 5 presents the results of PI staining in BEAS-2B cells (1 × 10^6) following treatment with peptides at a concentration of 6.25 μM. […] FACS analysis at a peptide concentration of 6.25 μM was employed to determine the membrane damage caused by peptides in E. coli and S. aureus cells (Table 5).
(§3) Peptide-induced membrane damage was evaluated by quantifying the influx of propidium iodide (PI). BEAS-2B cells (1 × 10^6 cells in 50 μL) were exposed to a final concentration of 6.25 μM peptide and incubated at 37 °C for 30 min, followed by PBS washing and re-suspension in PI solution (dissolved in PBS) at a final concentration of 2 μg/mL. Bacteria were cultured to mid-log phase at 37 °C, then diluted to an OD600 of 0.5 in phosphate-buffered saline (PBS). […] The bacteria were harvested and re-suspended in PI solution, with fluorescence signal analysis conducted using flow cytometry (Cytomics FC 500, Beckman Coulter, Indianapolis, IN, USA).

BEAS-2B cells = experiment: Membrane damage, PI staining and flow cytometry; format: cell-based; settings: 6.25 μM peptide, 1 × 10^6 cells, 37 °C, 30 min, flow cytometry
Experimental: as §2, §3

E. coli = experiment: Membrane damage, PI staining and flow cytometry; format: cell-based, Escherichia coli; settings: 6.25 μM peptide, OD600 0.5 in PBS, 37 °C, 30 min, flow cytometry
Experimental: as §2, §3

five bacterial strains = experiment: MICs against all five bacterial strains (geometric mean, range); format: cell-based; design: unit not given here; settings: geometric mean of MICs against all five bacterial strains
Experimental: as §1

CC[C@H](C)[C@H](NC(=O)[C@H](CCCCN)NC(=O)[C@H](CCC(=O)O)NC(=O)[C@H](CCCCN)NC(=O)[C@H](CO)NC(=O)[C@H](CCCCN)NC(=O)[C@H](CCCNC(=N)N)NC(=O)[C@H](Cc1ccccc1)NC(=O)[C@H](Cc1ccccc1)NC(=O)[C@H](CC(=O)O)NC(=O)CNC(=O)[C@H](CC(C)C)NC(=O)[C@@H](N)CC(C)C)C(=O)NCC(=O)N[C@@H](CCCCN)C(=O)N[C@@H](CCC(=O)O)C(=O)N[C@@H](Cc1ccccc1)C(=O)N[C@@H](CCCCN)C(=O)N[C@@H](CCCNC(=N)N)C(=O)N[C@H](C(=O)N[C@H](C(=O)N[C@@H](CCC(N)=O)C(=O)N[C@@H](CCCNC(=N)N)C(=O)N[C@H](C(=O)N[C@@H](CCCCN)C(=O)N[C@@H](CC(=O)O)C(=O)N[C@@H](Cc1ccccc1)C(=O)N[C@@H](CC(C)C)C(=O)N[C@@H](CCCNC(=N)N)C(=O)N[C@@H](CC(N)=O)C(=O)N[C@@H](CC(C)C)C(=O)N[C@H](C(=O)N1CCC[C@H]1C(=O)N[C@@H](CCCNC(=N)N)C(=O)N[C@H](C(=O)N[C@@H](CCC(=O)O)C(=O)N[C@@H](CO)C(=O)O)[C@@H](C)O)C(C)C)[C@@H](C)CC)C(C)C)[C@@H](C)CC [LL-37, reference compound]
Others [1]: 0%
Turn [1]: 0%
α-Helix [1]: 100%
β-Antiparallel [1]: 0%
β-Parallel [1]: 0%
GM to G+ [2]: 100
GM to G− [3]: 12.49
Rt [4]: 11.125 min
proportion of PI-positive cells, S. aureus (S. aureus): 46.9%
proportion of PI-positive cells, BEAS-2B (BEAS-2B cells): 31.2%
proportion of PI-positive cells, E. coli (E. coli): 78.9%
MIC (GM) (five bacterial strains): 28.72
